For one series, the system named is HepG2 cells. Nature of the series: Viability assay, with or without HDAC shRNA. Type of series: cell-based. As to conditions: HepG2, 96 h (FIG. 4A).
The target in the next series is HDAC1 (Homo sapiens (Human), UniProt Q13547). Nature of the series: In vitro HDAC1 inhibition assay of HTS hits (HDAC/II-Glo reagents). The class given is biochemical.
For series [1], the system named is HCT116 cells. Nature of the series: Western blotting of acetylated histones. Type of series: cell-based. As to conditions: for Inhibition of cellular HDACs (H4K5ac, H3K18ac): HCT116, 0.5 μM, 24 h (FIG. 1B); for Accumulation of acetylated histones: HCT116, 1 h, TSA 0.2 μM, others 2 μM (FIG. 1A).
Series [2] relates to HCT116 cells. Nature of the series: H3K18ac after 6 h pulse treatment and drug washout. Type of series: cell-based. As to conditions: 6 h exposure then washout.
The next series concerns HCT116 and A549 cells. Nature of the series: Western blotting of acetylated non-histone proteins. Type of series: cell-based. The note with it: for α-tubulin acetylation: 1 h, TSA 0.2 μM, UF010 2 μM.
For series [3] the following is noted: 50 mg/kg dosed orally, ref (4); cited from earlier work.
In series [4] the test system is NCI-60 panel of cancer cell lines. Briefly: NCI-60 panel screen. Type of series: cell-based.
Series [5] deals with MDA-MB-231 cells. Briefly: Cell cycle analysis by FACS. Type of series: cell-based. As to conditions: 24 h, dose-dependent.
Series [6] has as its system MDA-MB-231 cells. Nature of the series: Microarray gene expression profiling with Ingenuity Pathway Analysis. Type of series: cell-based. As to conditions: 1 μM, 24 h.
For series [7], the system named is MDA-MB-231 cells. Nature of the series: Quantitative real-time PCR of CDKN1A (p21). Type of series: cell-based.
Series [8] can be described thus: Cell-based assays, comparison with entinostat. The text has this:
Chem Biol. 2015: in press.].

In series [9] the test system is MDA-MB-231 cells. As to conditions: UF010 at 1 μM.
Series [10] deals with Ad-MLP-Luc reporter in HCT116 cell line. Nature of the series: Ad-MLP-Luc luciferase reporter activation assay. The class given is cell-based. As to conditions: HCT116, compared to Ad-E2-Luc reporter.

Structures are written as SMILES. Where only a bound is given, the exact number is not on record here.

Here are results for eight compounds from patent US11731934B2, “HDAC inhibitor compounds and methods of treatment” (University of Florida Research Foundation, Inc., priority 2014, dated 2023).

HDAC1, sequence (Q13547 whole entry): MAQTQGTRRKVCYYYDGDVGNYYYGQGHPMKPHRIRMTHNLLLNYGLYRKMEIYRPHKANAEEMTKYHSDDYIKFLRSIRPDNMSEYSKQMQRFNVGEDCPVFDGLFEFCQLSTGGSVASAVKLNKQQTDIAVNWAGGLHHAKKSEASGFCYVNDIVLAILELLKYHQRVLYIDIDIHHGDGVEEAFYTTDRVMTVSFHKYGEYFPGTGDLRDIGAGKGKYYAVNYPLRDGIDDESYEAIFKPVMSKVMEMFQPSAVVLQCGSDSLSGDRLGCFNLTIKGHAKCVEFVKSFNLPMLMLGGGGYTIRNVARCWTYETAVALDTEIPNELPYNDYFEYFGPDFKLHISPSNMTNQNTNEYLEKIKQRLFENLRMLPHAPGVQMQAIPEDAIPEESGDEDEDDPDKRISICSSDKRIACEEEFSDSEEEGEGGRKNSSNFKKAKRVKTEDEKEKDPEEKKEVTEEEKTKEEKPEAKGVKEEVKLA

For the compound `CCCCNNC(=O)c1ccccc1` [RLS2-125, N′-butylbenzohydrazide], in the series on HepG2 cells, the “Growth inhibition for HepG2” value is recorded as “little to no growth inhibition”.
Regarding `O=C(CCCCCCC(=O)Nc1ccccc1)NO` [SAHA, vorinostat, reference compound], the “HDAC1 inhibition in vitro, potency” value on HDAC1 is below 10 µM.
Regarding `CCCCNNC(=O)c1ccc(N(C)C)cc1` [RLS2-131, N′-butyl-4-(dimethylamino)benzohydrazide], the “Inhibition of cellular HDACs (H4K5ac, H3K18ac)” value in the series with HCT116 cells [1] is reported as “consistently displayed potent inhibition of cellular HDACs”.
In the case of `Nc1ccccc1NC(=O)c1ccc(CNC(=O)OCc2cccnc2)cc1` [MS-275, entinostat], the “Accumulation of acetylated histones” value in the series with HCT116 cells [1] is “only slightly induced acetylation at several sites but failed to induce acetylation at most sites”. In the series with HCT116 cells [2], the “Persistence of induced histone acetylation (H3K18ac) after drug addition” value (“Persistence” below) is recorded as “at least 48 h” and the “Time to induction of histone acetylation (H3K18ac)” value (“Time to induction” for short) was determined as 18 h.
For the compound `CC(/C=C/C(=O)NO)=C\[C@@H](C)C(=O)c1ccc(N(C)C)cc1` [TSA, Trichostatin A, reference compound], the “Accumulation of acetylated histones” value in the series with HCT116 cells [1] is “strongly induced acetylation at some sites but weakly at other sites”. The α-tubulin acetylation entry in the series on HCT116 and A549 cells was “dramatically increased α-tubulin acetylation”.
With `Nc1ccccc1NC(=O)CCCCCC(=O)Nc1ccccc1` [Compound 4b], the Tmax in [3] was 15 min.
For `CCCCNNC(=O)c1ccc(Br)cc1` [UF010, 4-bromo-N′-butylbenzohydrazide], on HDAC1, the “HDAC1 inhibition in vitro, potency” value was below 10 µM. In the series with HCT116 cells [1], the “Inhibition of cellular HDACs (H4K5ac, H3K18ac)” value was “consistently displayed potent inhibition of cellular HDACs” and the “Accumulation of acetylated histones” value is listed as “consistently induced the accumulation of acetylated histones at all sites examined”. Further, in the series on HCT116 and A549 cells (2 μM, after exposure to etoposide 10 μM), the “Accumulation of acetylated p53” value is “induced accumulation of acetylated p53”. Moreover, in the series with HCT116 and A549 cells (2 μM, with or without etoposide treatment), the p53 stabilization entry is “notably stabilized p53”. In addition, the α-tubulin acetylation entry in the series with HCT116 and A549 cells is listed as “little to no effect”. Also, in the series on HCT116 cells [2], the “Mode of HDAC inhibition (on/off)” value was “fast-on but slow-off inhibitor”, the “Persistence” value is “up to 96 h” and the “Time to induction” value is at most 6 h. In addition, the “Inhibition of proliferation, NCI-60 panel” value in [4] is listed as “inhibited proliferation of all tested cell lines”. Further, the Cell cycle effect entry with MDA-MB-231 cells [5] is on record as “mainly blocked G1/S transition”. In addition, in the series with MDA-MB-231 cells [6], the “Predicated activation state, Biological Functions: Cell cycle, Cell cycle progression” value is on record as “Suppressed”; the “Predicated activation state, Biological Functions: Cell death and survival, Apoptosis” value is recorded as “Activated”; the “Predicated activation state, Biological Functions: Cell death and survival, Cell survival” value is recorded as “Suppressed”; the “Predicated activation state, Biological Functions: Cell death and survival, Necrosis” value is “Activated”. Moreover, in the series on MDA-MB-231 cells [6], the “Predicated activation state, Biological Functions: Cell growth and proliferation, Proliferation of cells” value is given as “Suppressed”; the “Predicated activation state, Biological Functions: DNA replication, recombination and repair, Repair of DNA” value was “Suppressed”; the “Predicated activation state, Biological Functions: Gene expression, Transcription of RNA” value was “Suppressed”; the “Predicated activation state, Upstream Regulators: Butyric acid” value is “Activated”. Further, in the series with MDA-MB-231 cells [6], the “Predicated activation state, Upstream Regulators: Cisplatin” value is on record as “Activated”; the “Predicated activation state, Upstream Regulators: ERK1/2” value is “Activated”; the “Predicated activation state, Upstream Regulators: HDAC1” value was “Suppressed”; the “Predicated activation state, Upstream Regulators: HDAC2” value is recorded as “Suppressed”. In the series with MDA-MB-231 cells [6], the “Predicated activation state, Upstream Regulators: KRAS” value is recorded as “Suppressed”; the “Predicated activation state, Upstream Regulators: MYCN” value is “Suppressed”; the “Predicated activation state, Upstream Regulators: Myc” value is recorded as “Suppressed”; the “Predicated activation state, Upstream Regulators: Rb1” value is on record as “Activated”. Moreover, in the series on MDA-MB-231 cells [6], the “Predicated activation state, Upstream Regulators: Romidepsin” value was “Activated”; the “Predicated activation state, Upstream Regulators: TP53” value is recorded as “Activated”; the “Predicated activation state, Upstream Regulators: Tributyrin (butyrate)” value is “Activated”; the “Predicated activation state, Upstream Regulators: Trichostatin A” value was “Activated”. Also, the “Predicated activation state, Upstream Regulators: fulvestrant” value in the series with MDA-MB-231 cells [6] is “Activated”. In addition, in the series with MDA-MB-231 cells [7], the “CDKN1A (p21) expression by qPCR” value is “activation of CDKNA encoding p21 was also confirmed”. For the same compound, in series [8], the “Potency relative to entinostat in cell-based assays” value is on record as “about 5 fold”. Also, the “Cell migration to the denuded areas” value in the series on MDA-MB-231 cells [9] is reported as “markedly slowed migration”.
In the case of `C/C=C1\NC(=O)[C@H]2CSSCC/C=C/[C@H](CC(=O)N[C@H](C(C)C)C(=O)N2)OC(=O)[C@H](C(C)C)NC1=O` [Romidepsin, romidepsin], the Ad-MLP-Luc reporter activity result in [10] is “dramatically increased in a dose-dependent manner”. For the same compound, in the series with HCT116 cells [2], the “Persistence” value is on record as “up to 24 h” and the “Time to induction” value is “quickly induced acetylation”.
